Source: ChEMBL document CHEMBL4342426, “Structure-activity relationship of 4-azaindole-2-piperidine derivatives as agents against Trypanosoma cruzi” (Bioorg Med Chem Lett, 2020)

Columns and labels:
[1] = in vitro; conditions: human, MRC5 SV2 cells
Description: Selectivity index, ratio of IC50 for human MRC5 SV2 cells to IC50 for Trypanosoma cruzi Tulahuen CL2 amastigotes infected in human MRC5 SV2 cells

[2] = system: Trypanosoma brucei; experiment: microbe, parasite or virus in culture; conditions: Squib 427, 72 h
Description: Antitrypanosomal activity against Trypanosoma brucei Squib 427 assessed as reduction in parasite growth incubated for 72 hrs by resazurin dye based fluorimetric analysis

[3] = in vitro; conditions: mouse, liver microsomes
Description: Metabolic stability in mouse liver microsomes assessed as intrinsic clearance at 0.5 uM incubated for 30 mins by LC-MS/MS analysis

[4] = system: Trypanosoma cruzi; experiment: microbe, parasite or virus in culture; conditions: Tulahuen CL2, MRC-5 SV2, 168 h
Description: Antitrypanosomal activity against Trypanosoma cruzi Tulahuen CL2 amastigotes infected in human MRC5 SV2 cells incubated for 7 days by chlorophenol red beta-D-galactopyranoside substrate based spectrophotometric assay

[5] = system: Trypanosoma brucei rhodesiense; experiment: microbe, parasite or virus in culture; conditions: STIB900, 72 h
Description: Antiprotozoal activity against Trypanosoma brucei rhodesiense STIB900 trypomastigotes incubated for 72 hrs by resazurin dye based fluorimetric analysis

[6] = in vitro; conditions: human, MRC5 SV2 cells; remark: listed apart in the source
Description: (§1) Cytotoxicity against human MRC5 SV2 cells assessed as reduction in cell viability incubated for 3 days by fluorimetry

[7] = in vitro; conditions: mouse, peritoneal macrophages
Description: Selectivity index, ratio of IC50 for mouse peritoneal macrophage to IC50 for Leishmania infantum MHOM/MA(BE)/67/ITMAP263 infected in mouse peritoneal macrophage

[8] = system: Macrophage; experiment: cells; conditions: Mus musculus, 72 h
Description: (§2) Cytotoxicity against mouse peritoneal Macrophage cells assessed as reduction in cell viability incubated for 3 days by fluorimetry

[9] = in vitro; conditions: human, liver microsomes
Description: Metabolic stability in human liver microsomes assessed as intrinsic clearance at 0.5 uM incubated for 30 mins by LC-MS/MS analysis

[10] = physchem; conditions: buffer, pH 7.4
Description: Lipophilicity, logD of compound at pH 7.4 by HPLC analysis

[11] = in vitro; conditions: mouse, peritoneal macrophages; remark: listed apart in the source
Description: as §2

[12] = system: Leishmania infantum; experiment: microbe, parasite or virus in culture; conditions: for IC50: MHOM/MA(BE)/67/ITMAP263, 120 h; for IC90: MHOM/MA(BE)/67/ITMAP263, in Mus musculus, 120 h
Description: Antileishmanial activity against amastigote stage of Leishmania infantum MHOM/MA(BE)/67/ITMAP263 infected in mouse peritoneal macrophage assessed as parasite growth inhibition incubated for 5 days by Giemsa staining based assay

[13] = cells; conditions: Homo sapiens, MRC-5 SV2, 72 h
Description: as §1

[14] = in vitro; conditions: human, MRC5 SV2 cells; remark: listed apart in the source
Description: Selectivity index, ratio of IC50 for human MRC5 SV2 cells to IC50 for Trypanosoma brucei rhodesiense STIB900 trypomastigotes

[15] = in vitro; conditions: PAMPA
Description: Effective permeability of compound by PAMPA assay

[16] = in vitro; conditions: mouse, liver microsomes; remark: listed apart in the source
Description: Metabolic stability in mouse liver microsomes assessed as fraction unbound at 0.5 uM incubated for 30 mins by LC-MS/MS analysis

[17] = in vitro; conditions: human, MRC5 SV2 cells; remark: listed apart in the source
Description: Selectivity index, ratio of IC50 for human MRC5 SV2 cells to IC50 for Trypanosoma brucei Squib 427

| IC50 [2] | IC90 [2] | CLint scaled at 0.5 h, 0.5 µM [3] | IC50 [5] | IC90 [5] | IC90 at 72 h [6] | CLint scaled at 0.5 h, 0.5 µM [9] | microsomal CLint at 0.5 h, 0.5 µM [9] | logD [10] | IC90 at 72 h [11] | IC50 [12] | IC90 [12] | Papp [15] | Structure (SMILES) | selectivity ratio [1] | IC50 [4] | IC90 [4] | selectivity ratio [7] | IC50 [8] | IC50 [13] | selectivity ratio [14] | other results |
| --- | --- | --- | --- | --- | --- | --- | --- | --- | --- | --- | --- | --- | --- | --- | --- | --- | --- | --- | --- | --- | --- |
| 64 µM | 64 µM | 616 to 2560 mL/min/kg | 51.8 to 64 µM | 64 µM | 64 µM | 31 to 38.5 mL/min/kg | 23 to 26.6 µL/min/mg | 2.26 | 64 µM | 49.3 to 64 µM | 64 µM | – | CC(C)c1cc(C(=O)N2CCCC(O)(c3cc4ncccc4[nH]3)C2)on1 (centres undefined) | 1.9 | 8.35 to 58.5 µM | 15.6 to 64 µM | 1.14 | 64 µM | 56.5 to 64 µM | – | microsomal CLint at 0.5 h, 0.5 µM [3]: 155 to 600 µL/min/mg |
| 64 µM | 64 µM | 2330 mL/min/kg | 40.4 µM | 60.9 µM | 64 µM | 323 mL/min/kg | 184 µL/min/mg | 3.42 | 64 µM | 64 µM | 64 µM | 3.45 ×10⁻⁶ cm/s | O=C(c1cc(C(F)(F)F)no1)N1CCCC(c2cc3ncccc3[nH]2)C1 (centres undefined) | 15.7 | 4.08 µM | 45.3 µM | – | 64 µM | 64 µM | 1.61 | microsomal CLint at 0.5 h, 0.5 µM [3]: 449 µL/min/mg; fraction unbound at 0.5 h, 0.5 µM [16]: 0.615 |
| 64 µM | 64 µM | – | 64 µM | 64 µM | 64 µM | 1350 mL/min/kg | 196 µL/min/mg | 4.59 | 59.7 µM | 35.1 µM | 59.6 µM | 0.307 ×10⁻⁶ cm/s | O=C(c1cc(C(F)(F)F)no1)N1CCCC(c2cc3ncc(-c4ccccc4)cc3[nH]2)C1 (centres undefined) | – | 64 µM | 64 µM | 1.79 | 45.3 µM | 64 µM | – | fraction unbound at 0.5 h, 0.5 µM [16]: 0.157 |
| 20.5 µM | 29.9 µM | 9620 mL/min/kg | 9.55 µM | 25.6 µM | 29.9 µM | 235 mL/min/kg | – | – | 32 µM | 9.59 µM | 32 µM | – | COc1ccc(OC)c2[nH]c(C(=O)N3CCCC(c4cc5ncccc5[nH]4)C3)cc12 (centres undefined) | 18.9 | 1.2 µM | 6.67 µM | 2.35 | 32 µM | 22.6 µM | 2.36 | – |
| 7.87 µM | 14.8 µM | – | 4.97 µM | 13 µM | 13.6 µM | 1870 mL/min/kg | 149 µL/min/mg | 4.4 | 29.9 µM | 6.34 µM | 23.6 µM | 0.239 ×10⁻⁶ cm/s | O=C(c1cc(C(F)(F)F)no1)N1CCCC(c2cc3nc(NCc4ccccc4)ccc3[nH]2)C1 (centres undefined) | 3.23 | 2.14 µM | 64 µM | 1.07 | 22.6 µM | 6.91 µM | 1.4 | fraction unbound at 0.5 h, 0.5 µM [16]: 0.0857; selectivity ratio [17]: 0.894 |
| 16.3 µM | 32.4 µM | 970 mL/min/kg | 5.82 µM | 13.9 µM | 64 µM | 62.2 mL/min/kg | 44.6 µL/min/mg | 3.82 | 64 µM | 18.5 µM | 50.4 µM | 10.6 ×10⁻⁶ cm/s | O=C(c1ccc(F)cc1)N1CCCC(c2cc3ncc(Cl)cc3[nH]2)C1 (centres undefined) | 1.2 | 28.8 µM | 59.5 µM | 1.9 | 64 µM | 34.9 µM | 5.94 | microsomal CLint at 0.5 h, 0.5 µM [3]: 235 µL/min/mg; fraction unbound at 0.5 h, 0.5 µM [16]: 0.775; selectivity ratio [17]: 2.16 |
| 47.7 µM | 64 µM | > 772 mL/min/kg | 7.81 µM | 14.5 µM | 64 µM | > 61.7 mL/min/kg | 56.9 µL/min/mg | 3.18 | 64 µM | 64 µM | 64 µM | 23.6 ×10⁻⁶ cm/s | O=C(c1ccccc1)N1CCCC(c2cn3nc(Cl)ccc3n2)C1 (centres undefined) | – | 64 µM | 64 µM | – | 64 µM | 64 µM | 8.19 | microsomal CLint at 0.5 h, 0.5 µM [3]: 242 µL/min/mg; selectivity ratio [17]: 1.37 |
| 64 µM | 64 µM | ≥ 3320 mL/min/kg | 64 µM | 64 µM | 64 µM | ≥ 257 mL/min/kg | 238 µL/min/mg | 2.96 | 64 µM | 34.9 µM | 64 µM | 2.99 ×10⁻⁶ cm/s | O=C(c1ccccc1)N1C=C(c2cc3ncccc3[nH]2)CCC1 | 73.8 | 0.866 µM | 16 µM | 1.84 | 64 µM | 64 µM | – | microsomal CLint at 0.5 h, 0.5 µM [3]: 1040 µL/min/mg |
| 43.4 µM | 60.8 µM | 1960 to 2410 mL/min/kg | 8.03 µM | 14.1 µM | 64 µM | 92.5 mL/min/kg | 50.1 µL/min/mg | 3.45 | 59.7 µM | 41.8 µM | 59.6 µM | 0.152 to 0.228 ×10⁻⁶ cm/s | O=C(c1ccc(F)cc1)N1CCCC(c2cc3nc(N4CCCC4)ccc3[nH]2)C1 (centres undefined) | 5.86 | 8.33 µM | 31 µM | – | 45.3 µM | 48.7 µM | 6.07 | microsomal CLint at 0.5 h, 0.5 µM [3]: 441 to 444 µL/min/mg; fraction unbound at 0.5 h, 0.5 µM [16]: 0.586 to 0.722 |
| 19.6 µM | 29.5 µM | 2420 mL/min/kg | 7.33 µM | 24.4 µM | 29.5 µM | 838 mL/min/kg | – | – | 29.9 µM | 18.6 µM | 29.8 µM | – | COc1cc(OC)c2cc(C(=O)N3CCCC(c4cc5ncccc5[nH]4)C3)[nH]c2c1 (centres undefined) | 18.8 | 1.03 µM | 3.13 µM | 1.07 | 22.6 µM | 19.5 µM | 2.65 | – |
| 64 µM | 64 µM | 1610 mL/min/kg | 41.9 µM | 64 µM | 64 µM | 39.5 mL/min/kg | 33.8 µL/min/mg | 2.86 | 64 µM | 37.1 µM | 64 µM | 3.17 ×10⁻⁶ cm/s | O=C(c1cc(C2CC2)no1)N1CCCC(c2cc3ncccc3[nH]2)C1 (centres undefined) | 15.8 | 4.05 µM | 13.8 µM | 1.73 | 64 µM | 64 µM | 1.56 | microsomal CLint at 0.5 h, 0.5 µM [3]: 467 µL/min/mg; fraction unbound at 0.5 h, 0.5 µM [16]: 0.926 |
